In US20120015907A1, “Furopyridine compounds and uses thereof” (NOVARTIS AG, priority 2010, published 2012) one finds IC50 data, which are given here for 26 molecules.

As a reminder, the IC50 is the concentration at which inhibition is half-maximal.

SMILES strings stand for the structures.

The target of one assay is T1, HCV polymerase (Hepatitis C virus genotype 1b, UniProt Q9WMX2).
T1 construct: (His)6 (C)
As to the kind of experiment: biochemical. Conditions: NS5B polymerase IC50 μM, polymerase assay of Biological Example 1. An excerpt:
A number of assays have been published to assess these activities. A general method that assesses the gross increase of HCV virus in culture was disclosed in U.S. Pat. No. 5,738,985 to Miles et al. In vitro assays have been reported in Ferrari et al. Jnl. of Vir., 73:1649-1654, 1999; Ishii et al., Hepatology, 29:1227-1235, 1999; Lohmann et al., Jnl of Bio. Chem., 274:10807-10815, 1999; and Yamashita et al., Jnl. of Bio. Chem., 273:15479-15486, 1998.
WO 97/12033, filed on Sep. 27, 1996, by Emory University, listing C. Hagedorn and A. Reinoldus as inventors, which claims priority to U.S. Provisional Patent Application Ser. No. 60/004,383, filed on September 1995, described an HCV polymerase assay that can be used to evaluate the activity of the of the compounds described herein. Another HCV polymerase assay has been reported by Bartholomeusz, et al., Hepatitis C Virus (HCV) RNA polymerase assay using cloned HCV non-structural proteins; Antiviral Therapy 1996:1(Supp 4) 18-24.
Turning to `CNC(=O)c1c(-c2ccc(C)cc2)oc2nc(N(CCCCCP(C)(=O)O)S(C)(=O)=O)c(C3CC3)cc12` [Example 23.999991, 5-(N-(5-cyclopropyl-3-(methylcarbamoyl)-2-p-tolylfuro[2,3-b]pyridin-6-yl)methylsulfonamido)pentyl (methyl)phosphinic acid], the IC50 was determined as 0.004 µM.

Still in this assay, the particulars now being: polymerase assay of Biological Example 1; read-out: NS5B polymerase IC50.
Take `CNC(=O)c1c(-c2ccc(C)cc2)oc2nc(N(CCCCBr)S(C)(=O)=O)c(C3CC3)cc12` [Example 29.997, 6-(N-(4-bromobutyl)methylsulfonamido)-5-cyclopropyl-N-methyl-2-p-tolylfuro[2,3-b]pyridine-3-carboxamide]: the IC50 was determined as 0.002 µM.
For `CNC(=O)c1c(-c2ccc(C)cc2)oc2nc(N(CCCC3CCCC3C(=O)O)S(C)(=O)=O)c(I)cc12` (centres unmarked) [Example 18.9991, 2-(3-(N-(5-iodo-3-(methylcarbamoyl)-2-p-tolylfuro[2,3-b]pyridin-6-yl)methylsulfonamido)propyl)cyclopentanecarboxylic acid], the IC50 amounted to 0.005 µM.
The same measure, in the same setting: to `C=Cc1cc2c(C(=O)NC)c(-c3ccc(F)cc3)oc2nc1N(CCCCC(=O)O)S(C)(=O)=O` [Example 24.1, 5-(N-(2-(4-fluorophenyl)-3-(methylcarbamoyl)-5-vinylfuro[2,3-b]pyridin-6-yl)methylsulfonamido) pentanoic acid] belongs 0.078 µM; to `CNC(=O)c1c(-c2ccc(C)cc2)oc2nc(N(CCC(CC(=O)O)N(C)C)S(C)(=O)=O)c(C3CC3)cc12` (centres unmarked) [Example 44, 5-[(5-Cyclopropyl-3-methylcarbamoyl-2-p-tolyl-furo[2,3-b]pyridin-6-yl)-methanesulfonyl-amino]-3-dimethylamino-pentanoic acid], 0.02 µM; to `CCc1cc2c(C(=O)NC)c(-c3ccc(F)cc3)oc2nc1N(CC1CCN(C(=O)OC(C)(C)C)CC1)S(C)(=O)=O` [Example 21.997, tert-butyl 4-((N-(5-ethyl-2-(4-fluorophenyl)-3-(methylcarbamoyl)furo[2,3-b]pyridin-6-yl)methylsulfonamido)methyl)piperidine-1-carboxylate], 0.148 µM.
Same read-out and setting: to `CCc1cc2c(C(=O)NC)c(-c3ccc(F)cc3)oc2nc1N(CCOc1ccccc1C(=O)OC)S(C)(=O)=O` [Example 22.5, methyl 2-(2-(N-(5-ethyl-2-(4-fluorophenyl)-3-(methylcarbamoyl)furo[2,3-b]pyridin-6-yl)methylsulfonamido)ethoxy)benzoate] belongs 0.083 µM; to `CNC(=O)c1c(-c2ccc(F)cc2)oc2nc(N(C)S(C)(=O)=O)c(CCCN)cc12` [Example 15, 5-(3-aminopropyl)-2-(4-fluorophenyl)-N-methyl-6-(N-methylmethylsulfonamido)furo[2,3-b]pyridine-3-carboxamide], 0.532 µM.
The same measure, in the same setting: the figure for `C=CCN(c1nc2oc(-c3ccc(C)cc3)c(C(=O)NC)c2cc1C1CC1)S(C)(=O)=O` [Example 29.97, 6-(N-allylmethylsulfonamido)-5-cyclopropyl-N-methyl-2-p-tolylfuro[2,3-b]pyridine-3-carboxamide] is 0.003 µM; for `CCc1cc2c(C(=O)NC)c(-c3ccc(F)cc3)oc2nc1N(CCc1ccncc1)S(C)(=O)=O` [Example 21.996, 5-ethyl-2-(4-fluorophenyl)-N-methyl-6-(N-(2-(pyridin-4-yl)ethyl)methylsulfonamido)furo[2,3-b]pyridine-3-carboxamide] it is 0.094 µM; for `CNC(=O)c1c(-c2ccc(C)cc2)oc2nc(N(CCCC3(C(=O)O)CCN(C(C)=O)CC3)S(C)(=O)=O)c(C3CC3)cc12` [Example 29.99992, 1-acetyl-4-(3-(N-(5-cyclopropyl-3-(methylcarbamoyl)-2-p-tolylfuro[2,3-b]pyridin-6-yl)methylsulfonamido)propyl) piperidine-4-carboxylic acid] it is 0.002 µM.
Turning to `CNC(=O)c1c(-c2ccc(F)cc2)oc2nc3c(cc12)C(C)CCN3S(C)(=O)=O` (centres unmarked) [Example 36.6, 2-(4-fluorophenyl)-N,5-dimethyl-8-(methylsulfonyl)-5,6,7,8-tetrahydrofuro[2,3-b][1,8]naphthyridine-3-carboxamide], the concentration for half-maximal inhibition (IC50) is 0.231 µM.
Same read-out and setting: the figure for `CNC(=O)c1c(-c2ccc(C)cc2)oc2nc(N(CCC[C@H](C)C(=O)NCCCC(=O)O)S(C)(=O)=O)c(C3CC3)cc12` [Example 29.999991, (S)-4-(5-(N-(5-cyclopropyl-3-(methylcarbamoyl)-2-p-tolylfuro[2,3-b]pyridin-6-yl)methylsulfonamido)-2-methylpentanamido)butanoic acid] is 0.02 µM.
Take `CNC(=O)c1c(-c2ccc(F)cc2)oc2nc(N(CCC3CCS(=O)(=O)C3)S(C)(=O)=O)c(C3CC3)cc12` (centres unmarked) [Example 25.91, 5-Cyclopropyl-6-{[2-(1,1-dioxo-tetrahydro-thiophen-3-yl)-ethyl]-methanesulfonyl-amino}-2-(4-fluoro-phenyl)-furo[2,3-b]pyridine-3-carboxylic acid methylamide]: the IC50 is 0.003 µM.
For the molecule `CNC(=O)c1c(-c2ccc(F)cc2)oc2nc(N(CCC(O)CO)S(C)(=O)=O)c(I)cc12` (centres unmarked) [Example 18.94, 6-(N-(3,4-dihyroxybutyl)methylsulfonamido)-2-(4-fluorophenyl)-5-iodo-N-methylfuro[2,3-b]pyridine-3-carboxamide], the IC50 was 0.243 µM.
On to `CNC(=O)c1c(-c2ccc(C)cc2)oc2nc(N(CCCC3(C(=O)O)CCN(C(=O)OC(C)(C)C)CC3)S(C)(=O)=O)c(C3CC3)cc12` [Example 29.9996, 1-(tert-butoxycarbonyl)-4-(3-(N-(5-cyclopropyl-3-(methylcarbamoyl)-2-p-tolylfuro[2,3-b]pyridin-6-yl)methylsulfonamido)propyl) piperidine-4-carboxylic acid], for which the IC50 turned out to be 0.117 µM.
The same measure, in the same setting: to `CCc1cc2c(C(=O)NC)c(-c3ccc(F)cc3)oc2nc1N(CCCCl)S(C)(=O)=O` [Example 22.997, 6-(N-(3-chloropropyl)methylsulfonamido)-5-ethyl-2-(4-fluorophenyl)-N-methylfuro[2,3-b]pyridine-3-carboximide] belongs 0.083 µM; to `CCc1cc2c(C(=O)NC)c(-c3ccc(F)cc3)oc2nc1N(C[C@H](C)Cc1ccc(OC)nc1)S(C)(=O)=O` [Example 21.7, (R)-5-ethyl-2-(4-fluorophenyl)-6-(N-(3-(6-methoxypyridin-3-yl)-2-methylpropyl)methylsulfonamido)-N-methylfuro[2,3-b]pyridine-3-carboxamide], 0.531 µM; to `CNC(=O)c1c(-c2ccc(C)cc2)oc2nc(N(CCCC3(C(=O)O)CCC3)S(C)(=O)=O)c(C3CC3)cc12` [Example 29.1, 1-{3-[(5-Cyclopropyl-3-methylcarbamoyl-2-p-tolyl-furo[2,3-b]pyridin-6-yl)-methanesulfonyl-amino]-propyl}-cyclobutanecarboxylic acid], 0.002 µM.
As for `CNC(=O)c1c(-c2ccc(F)cc2)oc2nc(N(CCCCC(=O)O)S(C)(=O)=O)c(C3CC3)cc12` [Example 26.9, 5-(N-(5-cyclopropyl-2-(4-fluorophenyl)-3-(methylcarbamoyl)furo[2,3-b]pyridin-6-yl)methylsulfonamido) pentanoic acid], the IC50 was 0.003 µM.
Same read-out and setting: to `CNC(=O)c1c(-c2ccc(F)cc2)oc2nc(N(C)S(C)(=O)=O)c(CCCC(N)=O)cc12` [Example 4.3, 5-(4-amino-4-oxobutyl)-2-(4-fluorophenyl)-N-methyl-6-(N-methylmethylsulfonamido)furo[2,3-b]pyridine-3-carboxamide] belongs 0.132 µM; to `CNC(=O)c1c(-c2ccccn2)oc2nc(N(C)S(C)(=O)=O)c(I)cc12` [Example 2.3, 5-iodo-N-methyl-6-(N-methylmethylsulfonamido)-2-(pyridin-2-yl)furo[2,3-b]pyridine-3-carboxamide], 0.408 µM.
Same read-out and setting: the figure for `CNC(=O)c1c(-c2ccc(C)cc2)oc2nc(N(CCCCCO)S(C)(=O)=O)c(C3CC3)cc12` [Example 23.99996, 5-cyclopropyl-6-(N-(5-hydroxypentyl)methylsulfon amido)-N-methyl-2-p-tolylfuro[2,3-b]pyridine-3-carboxamide] is 0.002 µM; for `CNC(=O)c1c(-c2ccc(F)cc2)oc2nc(N(C)S(C)(=O)=O)c(CCCCC(=O)N3CCC[C@H]3C(N)=O)cc12` [Example 4.8, (S)-5-(5-(2-carbamoylpyrrolidin-1-yl)-5-oxopentyl)-2-(4-fluorophenyl)-N-methyl-6-(N-methylmethylsulfonamido)furo[2,3-b]pyridine-3-carboxamide] it is 0.051 µM; for `CNC(=O)c1c(-c2ccc(C)cc2)oc2nc(N(CCCC(CC(=O)O)OC)S(C)(=O)=O)c(C3CC3)cc12` (centres unmarked) [Example 29.999994, 6-(N-(5-cyclopropyl-3-(methylcarbamoyl)-2-p-tolylfuro[2,3-b]pyridin-6-yl)methylsulfonamido)-3-methoxyhexanoic acid] it is 0.003 µM.
On to `CNC(=O)c1c(-c2ccc(C)cc2)oc2nc(N(CCCC(C)C(=O)O)S(C)(=O)=O)c(C3CC3)cc12` (centres unmarked) [Example 29.9994, 5-(N-(5-cyclopropyl-3-(methylcarbamoyl)-2-p-tolylfuro[2,3-b]pyridin-6-yl)methylsulfonamido)-2-methylpentanoic acid], for which the half-inhibitory concentration (IC50) was 0.002 µM.
